Experimental findings from the supplement of paper PMC11208160 are described below.

The nature of this data set: recombinant UMI read abundance after kanamycin selection (control-corrected) (log10(CPM+1)); higher = more efficient recombination; extreme values may be limits of the assay; sequences stand for … in AGTGCAGAGAAAATCGGCCAGTTTTCTCTGCCTGCAGTCCGCATGCCGTGGGACCCCTTGGGTTCTAACCTGTTGCCTAGATTTATGCAGCGGACTGCCTTTCTCCCAAAGTGATAAACCGG…AGGTTGGTTTCACT; site = the 11-nt donor. Here is the method:
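Pooled E. coli donor-specificity screen for the IS621 bridge recombinase. Each library member carries a reprogrammed 11-nt donor and a full-length LE bridge RNA expressed in cis from the natural promoter, with a paired donor-binding loop (8-nt LDG + 4-nt RDG) and a target-binding loop fixed to T5. It is co-electroporated with a T5 target plasmid; recombinase is induced with 0.07 mM IPTG and recombinants are selected on kanamycin. UMIs are counted as CPM, averaged over two biological replicates and corrected by the unselected control. Molecule = full bridge RNA written as DNA, built from the T5 scaffold: LDG = donor specificity nt 1-8, RDG = reverse complement of nt 8-11.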
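Further: IS621 bridge recombinase in Escherichia coli cells against a fixed T5 target plasmid.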

On to “AATTTATCATGGACCGGTTTTCCCGGTAATCCGTATTTGTT (site AATTTATCTAA)”, for which the “recombinant UMI read abundance (log10)” value was 0.558.

Take “ACAAACCCATGGACCGGTTTTCCCGGTAATCCGTATTTGGG (site ACAAACCCTCC)”: the “recombinant UMI read abundance (log10)” value was 0.

For the sequence “ACAAATCCATGGACCGGTTTTCCCGGTAATCCGTATTTGAC (site ACAAATCCTGT)”, the “recombinant UMI read abundance (log10)” value came to 0.255.

Consider “ACAAATCCATGGACCGGTTTTCCCGGTAATCCGTATTTGAC (site ACACATCCTGT)”, for which the “recombinant UMI read abundance (log10)” value came out at 0.

Take “ACAAATCCATGGACCGGTTTTCCCGGTAATCCGTATTTGAC (site ACAGATCCTGT)”: the “recombinant UMI read abundance (log10)” value was determined as 0.

As for “ACAAATCCATGGACCGGTTTTCCCGGTAATCCGTATTTGAC (site ACATATCCTGT)”, the “recombinant UMI read abundance (log10)” value was found to be 0.

As for “ACAATCGCATGGACCGGTTTTCCCGGTAATCCGTATTTGAA (site ACAATCGCTTT)”, the “recombinant UMI read abundance (log10)” value was found to be 2.55.

With “ACAATGTCATGGACCGGTTTTCCCGGTAATCCGTATTTGCG (site ACAATGTCTCG)”, the “recombinant UMI read abundance (log10)” value was 3.04.

On to “ACACAAACATGGACCGGTTTTCCCGGTAATCCGTATTTGTC (site ACACAAACTGA)”, for which the “recombinant UMI read abundance (log10)” value was determined as 2.41.

Take “ACACAAACATGGACCGGTTTTCCCGGTAATCCGTATTTGTC (site ACACCAACTGA)”: the “recombinant UMI read abundance (log10)” value stood at 0.

For the sequence “ACACAAACATGGACCGGTTTTCCCGGTAATCCGTATTTGTC (site ACACGAACTGA)”, the “recombinant UMI read abundance (log10)” value came to 0.

Turning to “ACACAAACATGGACCGGTTTTCCCGGTAATCCGTATTTGTC (site ACACTAACTGA)”, the “recombinant UMI read abundance (log10)” value came to 0.

Turning to “ACACAACCATGGACCGGTTTTCCCGGTAATCCGTATTTGAC (site ACACAACCTGT)”, the “recombinant UMI read abundance (log10)” value was found to be 0.

Take “ACACAACCATGGACCGGTTTTCCCGGTAATCCGTATTTGAC (site ACACACCCTGT)”: the “recombinant UMI read abundance (log10)” value is 0.

As to “ACACAACCATGGACCGGTTTTCCCGGTAATCCGTATTTGAC (site ACACAGCCTGT)”, the “recombinant UMI read abundance (log10)” value was found to be 0.668.

Take “ACACAACCATGGACCGGTTTTCCCGGTAATCCGTATTTGAC (site ACACATCCTGT)”: the “recombinant UMI read abundance (log10)” value worked out at 0.

On to “ACACATCCATGGACCGGTTTTCCCGGTAATCCGTATTTGAT (site ACACATCCTAT)”, for which the “recombinant UMI read abundance (log10)” value came out at 1.34.

In the case of “ACACATCCATGGACCGGTTTTCCCGGTAATCCGTATTTGAT (site ACACATCCTCT)”, the “recombinant UMI read abundance (log10)” value stood at 0.0152.

As for “ACACATCCATGGACCGGTTTTCCCGGTAATCCGTATTTGAT (site ACACATCCTGT)”, the “recombinant UMI read abundance (log10)” value stood at 0.

Consider “ACACATCCATGGACCGGTTTTCCCGGTAATCCGTATTTGAT (site ACACATCCTTT)”, for which the “recombinant UMI read abundance (log10)” value was found to be 0.0785.

For “ACACATGCATGGACCGGTTTTCCCGGTAATCCGTATTTGAC (site ACACATACTGT)”, the “recombinant UMI read abundance (log10)” value was determined as 2.59.

In the case of “ACACATGCATGGACCGGTTTTCCCGGTAATCCGTATTTGAC (site ACACATCCTGT)”, the “recombinant UMI read abundance (log10)” value was 1.71.

For “ACACATGCATGGACCGGTTTTCCCGGTAATCCGTATTTGAC (site ACACATGCTGT)”, the “recombinant UMI read abundance (log10)” value is 2.6.

Take “ACACATGCATGGACCGGTTTTCCCGGTAATCCGTATTTGAC (site ACACATTCTGT)”: the “recombinant UMI read abundance (log10)” value stood at 0.598.

For “ACACATTCATGGACCGGTTTTCCCGGTAATCCGTATTTGAC (site ACACATACTGT)”, the “recombinant UMI read abundance (log10)” value turned out to be 0.745.

Regarding “ACACATTCATGGACCGGTTTTCCCGGTAATCCGTATTTGAC (site ACACATCCTGT)”, the “recombinant UMI read abundance (log10)” value was determined as 0.331.

Consider “ACACATTCATGGACCGGTTTTCCCGGTAATCCGTATTTGAC (site ACACATGCTGT)”, for which the “recombinant UMI read abundance (log10)” value stood at 0.

In the case of “ACACATTCATGGACCGGTTTTCCCGGTAATCCGTATTTGAC (site ACACATTCTGT)”, the “recombinant UMI read abundance (log10)” value was determined as 2.74.

For “ACACCAGCATGGACCGGTTTTCCCGGTAATCCGTATTTGAT (site ACACCAGCTAT)”, the “recombinant UMI read abundance (log10)” value came out at 2.01.

Consider “ACACCCACATGGACCGGTTTTCCCGGTAATCCGTATTTGAG (site ACACCCACTCT)”, for which the “recombinant UMI read abundance (log10)” value was determined as 1.37.

“ACACGAACATGGACCGGTTTTCCCGGTAATCCGTATTTGTC (site AAACGAACTGA)”: the “recombinant UMI read abundance (log10)” value is 0.

With “ACACGAACATGGACCGGTTTTCCCGGTAATCCGTATTTGTC (site ACAAGAACTGA)”, the “recombinant UMI read abundance (log10)” value turned out to be 0.

Regarding “ACACGAACATGGACCGGTTTTCCCGGTAATCCGTATTTGTC (site ACACAAACTGA)”, the “recombinant UMI read abundance (log10)” value was 1.4.

On to “ACACGAACATGGACCGGTTTTCCCGGTAATCCGTATTTGTC (site ACACCAACTGA)”, for which the “recombinant UMI read abundance (log10)” value was 0.

For the sequence “ACACGAACATGGACCGGTTTTCCCGGTAATCCGTATTTGTC (site ACACGAACTAA)”, the “recombinant UMI read abundance (log10)” value was found to be 1.83.

On to “ACACGAACATGGACCGGTTTTCCCGGTAATCCGTATTTGTC (site ACACGAACTCA)”, for which the “recombinant UMI read abundance (log10)” value is 0.338.

Take “ACACGAACATGGACCGGTTTTCCCGGTAATCCGTATTTGTC (site ACACGAACTGA)”: the “recombinant UMI read abundance (log10)” value came out at 2.77.

“ACACGAACATGGACCGGTTTTCCCGGTAATCCGTATTTGTC (site ACACGAACTGC)”: the “recombinant UMI read abundance (log10)” value worked out at 0.

With “ACACGAACATGGACCGGTTTTCCCGGTAATCCGTATTTGTC (site ACACGAACTGG)”, the “recombinant UMI read abundance (log10)” value was determined as 1.74.

For “ACACGAACATGGACCGGTTTTCCCGGTAATCCGTATTTGTC (site ACACGAACTGT)”, the “recombinant UMI read abundance (log10)” value was 1.41.

For the sequence “ACACGAACATGGACCGGTTTTCCCGGTAATCCGTATTTGTC (site ACACGAACTTA)”, the “recombinant UMI read abundance (log10)” value was 1.96.

For the sequence “ACACGAACATGGACCGGTTTTCCCGGTAATCCGTATTTGTC (site ACACGACCTGA)”, the “recombinant UMI read abundance (log10)” value is 0.

In the case of “ACACGAACATGGACCGGTTTTCCCGGTAATCCGTATTTGTC (site ACACGAGCTGA)”, the “recombinant UMI read abundance (log10)” value amounted to 0.

“ACACGAACATGGACCGGTTTTCCCGGTAATCCGTATTTGTC (site ACACGATCTGA)”: the “recombinant UMI read abundance (log10)” value was found to be 1.55.

In the case of “ACACGAACATGGACCGGTTTTCCCGGTAATCCGTATTTGTC (site ACACGCACTGA)”, the “recombinant UMI read abundance (log10)” value came out at 0.

As for “ACACGAACATGGACCGGTTTTCCCGGTAATCCGTATTTGTC (site ACACGGACTGA)”, the “recombinant UMI read abundance (log10)” value was found to be 1.61.

As to “ACACGAACATGGACCGGTTTTCCCGGTAATCCGTATTTGTC (site ACACGTACTGA)”, the “recombinant UMI read abundance (log10)” value came to 0.

On to “ACACGAACATGGACCGGTTTTCCCGGTAATCCGTATTTGTC (site ACACTAACTGA)”, for which the “recombinant UMI read abundance (log10)” value is 0.

Consider “ACACGAACATGGACCGGTTTTCCCGGTAATCCGTATTTGTC (site ACAGGAACTGA)”, for which the “recombinant UMI read abundance (log10)” value turned out to be 0.

Regarding “ACACGAACATGGACCGGTTTTCCCGGTAATCCGTATTTGTC (site ACATGAACTGA)”, the “recombinant UMI read abundance (log10)” value stood at 0.

Consider “ACACGAACATGGACCGGTTTTCCCGGTAATCCGTATTTGTC (site ACCCGAACTGA)”, for which the “recombinant UMI read abundance (log10)” value was 0.

Take “ACACGAACATGGACCGGTTTTCCCGGTAATCCGTATTTGTC (site ACGCGAACTGA)”: the “recombinant UMI read abundance (log10)” value is 0.

For “ACACGAACATGGACCGGTTTTCCCGGTAATCCGTATTTGTC (site ACTCGAACTGA)”, the “recombinant UMI read abundance (log10)” value came out at 0.747.

As to “ACACGAACATGGACCGGTTTTCCCGGTAATCCGTATTTGTC (site AGACGAACTGA)”, the “recombinant UMI read abundance (log10)” value is 0.

Consider “ACACGAACATGGACCGGTTTTCCCGGTAATCCGTATTTGTC (site ATACGAACTGA)”, for which the “recombinant UMI read abundance (log10)” value was determined as 0.0105.

With “ACACGAACATGGACCGGTTTTCCCGGTAATCCGTATTTGTC (site CCACGAACTGA)”, the “recombinant UMI read abundance (log10)” value was 0.924.

As for “ACACGAACATGGACCGGTTTTCCCGGTAATCCGTATTTGTC (site GCACGAACTGA)”, the “recombinant UMI read abundance (log10)” value was determined as 0.

As for “ACACGAACATGGACCGGTTTTCCCGGTAATCCGTATTTGTC (site TCACGAACTGA)”, the “recombinant UMI read abundance (log10)” value is 0.

On to “ACACGGACATGGACCGGTTTTCCCGGTAATCCGTATTTGGC (site ACACGGACTGC)”, for which the “recombinant UMI read abundance (log10)” value turned out to be 2.58.

Turning to “ACACGTACATGGACCGGTTTTCCCGGTAATCCGTATTTGTC (site ACACGAACTGA)”, the “recombinant UMI read abundance (log10)” value was 0.

With “ACACGTACATGGACCGGTTTTCCCGGTAATCCGTATTTGTC (site ACACGCACTGA)”, the “recombinant UMI read abundance (log10)” value was 0.199.

For the sequence “ACACGTACATGGACCGGTTTTCCCGGTAATCCGTATTTGTC (site ACACGGACTGA)”, the “recombinant UMI read abundance (log10)” value came to 0.

With “ACACGTACATGGACCGGTTTTCCCGGTAATCCGTATTTGTC (site ACACGTACTGA)”, the “recombinant UMI read abundance (log10)” value was 1.49.

For the sequence “ACAGACACATGGACCGGTTTTCCCGGTAATCCGTATTTGTC (site ACAGACACTGA)”, the “recombinant UMI read abundance (log10)” value came to 2.7.

Turning to “ACAGACCCATGGACCGGTTTTCCCGGTAATCCGTATTTGCC (site ACAGACCCTGG)”, the “recombinant UMI read abundance (log10)” value is 1.2.
